Experiments:
Format in all cases: cell-based
[1] = target: T1, human parathyroid cell calcium receptor (Homo sapiens, UniProt P41180, E1011Q/Q926R); test: Cl- current in Xenopus oocytes injected with pHuPCaR 5.2; settings: 3 to 30 μM; 0.3 mM extracellular Ca2+
T1 construct: appear to be full-length clones corresponding to the 5 Kb mRNA; expressed in transfected cells; host or cells: Xenopus laevis oocytes injected with pHuPCaR 5.2
T1 sequence (P41180 20-1088 isoform P41180-2 Q936R/E1021Q): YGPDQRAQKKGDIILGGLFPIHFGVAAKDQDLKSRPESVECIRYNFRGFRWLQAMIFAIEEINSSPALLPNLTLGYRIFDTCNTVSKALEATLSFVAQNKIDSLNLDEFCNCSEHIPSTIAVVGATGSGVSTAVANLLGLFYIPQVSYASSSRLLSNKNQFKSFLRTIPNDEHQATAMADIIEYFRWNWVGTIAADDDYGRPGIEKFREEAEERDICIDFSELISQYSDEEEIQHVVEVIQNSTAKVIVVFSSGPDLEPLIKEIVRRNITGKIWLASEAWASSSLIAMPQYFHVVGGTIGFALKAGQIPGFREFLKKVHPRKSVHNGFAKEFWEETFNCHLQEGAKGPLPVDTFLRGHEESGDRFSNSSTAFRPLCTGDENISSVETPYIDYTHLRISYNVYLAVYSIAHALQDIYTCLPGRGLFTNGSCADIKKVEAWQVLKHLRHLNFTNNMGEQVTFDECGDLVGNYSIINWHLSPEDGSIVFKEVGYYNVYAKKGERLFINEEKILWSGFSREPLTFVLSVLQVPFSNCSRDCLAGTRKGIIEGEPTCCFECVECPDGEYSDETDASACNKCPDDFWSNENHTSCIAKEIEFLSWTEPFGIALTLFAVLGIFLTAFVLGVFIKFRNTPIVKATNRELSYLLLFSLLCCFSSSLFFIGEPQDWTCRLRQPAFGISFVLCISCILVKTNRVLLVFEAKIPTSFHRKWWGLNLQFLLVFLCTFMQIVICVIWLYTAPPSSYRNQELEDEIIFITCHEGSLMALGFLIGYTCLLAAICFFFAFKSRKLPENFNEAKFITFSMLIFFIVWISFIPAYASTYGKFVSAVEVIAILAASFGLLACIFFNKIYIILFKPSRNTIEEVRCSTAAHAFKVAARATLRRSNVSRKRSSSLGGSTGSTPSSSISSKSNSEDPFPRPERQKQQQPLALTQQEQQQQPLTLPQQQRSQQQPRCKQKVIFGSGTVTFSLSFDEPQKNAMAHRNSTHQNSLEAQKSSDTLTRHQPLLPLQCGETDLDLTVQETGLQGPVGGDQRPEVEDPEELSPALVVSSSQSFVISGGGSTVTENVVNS
Procedure: Xenopus oocytes were injected with pHuPCaR 5.2, the 5.2 Kb cDNA encoding a parathyroid cell calcium receptor derived from a human parathyroid cell adenoma. (See Example 27.) After two to three days, Cl^− currents were measured in the oocytes using a two-electrode voltage clamp.

[2] = target: T2, bovine parathyroid cell calcium receptor (Bos taurus, UniProt P35384); test: Cl- current in Xenopus oocytes injected with BoPCaR 1; settings: 1 mM extracellular Ca2+
T2 construct: isolation of a single clone (BoPCaR 1) with a cDNA insert of 5.3 kb; expressed in transfected cells
T2 sequence (P35384 20-1085): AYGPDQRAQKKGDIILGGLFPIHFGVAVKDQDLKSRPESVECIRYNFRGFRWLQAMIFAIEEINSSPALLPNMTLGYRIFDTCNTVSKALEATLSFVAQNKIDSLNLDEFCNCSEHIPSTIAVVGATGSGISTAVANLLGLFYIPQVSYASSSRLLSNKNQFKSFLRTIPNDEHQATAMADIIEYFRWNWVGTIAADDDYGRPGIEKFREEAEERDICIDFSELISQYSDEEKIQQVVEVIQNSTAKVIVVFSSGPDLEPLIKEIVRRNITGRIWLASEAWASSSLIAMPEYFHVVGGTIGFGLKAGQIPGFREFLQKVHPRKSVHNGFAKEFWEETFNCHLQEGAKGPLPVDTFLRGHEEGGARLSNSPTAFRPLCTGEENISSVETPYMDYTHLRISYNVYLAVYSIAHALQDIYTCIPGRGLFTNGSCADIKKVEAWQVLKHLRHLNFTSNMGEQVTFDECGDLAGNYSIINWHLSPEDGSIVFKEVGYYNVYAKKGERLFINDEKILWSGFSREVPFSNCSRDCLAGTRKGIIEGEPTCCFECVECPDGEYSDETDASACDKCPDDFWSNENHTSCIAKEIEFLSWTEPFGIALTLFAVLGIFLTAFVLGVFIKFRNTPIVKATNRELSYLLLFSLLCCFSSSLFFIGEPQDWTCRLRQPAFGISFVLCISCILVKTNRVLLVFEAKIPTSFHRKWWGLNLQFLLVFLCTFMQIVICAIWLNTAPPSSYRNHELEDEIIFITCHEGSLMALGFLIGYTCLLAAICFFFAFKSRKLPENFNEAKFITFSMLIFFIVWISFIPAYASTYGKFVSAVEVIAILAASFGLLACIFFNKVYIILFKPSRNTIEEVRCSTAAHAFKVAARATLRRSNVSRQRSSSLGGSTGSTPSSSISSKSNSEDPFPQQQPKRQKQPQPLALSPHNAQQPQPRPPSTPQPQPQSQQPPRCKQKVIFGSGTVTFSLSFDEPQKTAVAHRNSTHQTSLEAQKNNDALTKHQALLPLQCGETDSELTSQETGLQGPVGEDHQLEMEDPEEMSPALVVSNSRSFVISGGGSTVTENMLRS
Procedure: Several pharmacological and biochemical criteria were used to identify this clone as encoding a bona fide bovine parathyroid Ca^2+ receptor. […] These responses increased markedly over a period of one to four days after injection of the eggs with cRNA prepared from the BoPCaR 1 cDNA. Furthermore, the ranges of the concentrations of the two cations eliciting this response were very similar to those shown previously to act on bovine parathyroid cells in vitro.
Xenopus oocytes were injected with BoPCaR 1, the 5.3 Kb cDNA encoding a bovine parathyroid cell calcium receptor as described in Example 25. After two to three days, Cl^− currents were examined in the oocytes using a two-electrode voltage clamp.
Xenopus oocytes were injected with BoPCaR 1 as described in Example 25. After two to three days, Cl^− currents were examined in the oocytes using two electrode voltage clamp.

[3] = target: T3, osteoclast calcium receptor (Rattus norvegicus, UniProt P48442); test: [Ca2+]i (indo-1) in single rat osteoclasts; settings: Table 6; rat osteoclasts, indo-1
T3 sequence (P48442 20-1079): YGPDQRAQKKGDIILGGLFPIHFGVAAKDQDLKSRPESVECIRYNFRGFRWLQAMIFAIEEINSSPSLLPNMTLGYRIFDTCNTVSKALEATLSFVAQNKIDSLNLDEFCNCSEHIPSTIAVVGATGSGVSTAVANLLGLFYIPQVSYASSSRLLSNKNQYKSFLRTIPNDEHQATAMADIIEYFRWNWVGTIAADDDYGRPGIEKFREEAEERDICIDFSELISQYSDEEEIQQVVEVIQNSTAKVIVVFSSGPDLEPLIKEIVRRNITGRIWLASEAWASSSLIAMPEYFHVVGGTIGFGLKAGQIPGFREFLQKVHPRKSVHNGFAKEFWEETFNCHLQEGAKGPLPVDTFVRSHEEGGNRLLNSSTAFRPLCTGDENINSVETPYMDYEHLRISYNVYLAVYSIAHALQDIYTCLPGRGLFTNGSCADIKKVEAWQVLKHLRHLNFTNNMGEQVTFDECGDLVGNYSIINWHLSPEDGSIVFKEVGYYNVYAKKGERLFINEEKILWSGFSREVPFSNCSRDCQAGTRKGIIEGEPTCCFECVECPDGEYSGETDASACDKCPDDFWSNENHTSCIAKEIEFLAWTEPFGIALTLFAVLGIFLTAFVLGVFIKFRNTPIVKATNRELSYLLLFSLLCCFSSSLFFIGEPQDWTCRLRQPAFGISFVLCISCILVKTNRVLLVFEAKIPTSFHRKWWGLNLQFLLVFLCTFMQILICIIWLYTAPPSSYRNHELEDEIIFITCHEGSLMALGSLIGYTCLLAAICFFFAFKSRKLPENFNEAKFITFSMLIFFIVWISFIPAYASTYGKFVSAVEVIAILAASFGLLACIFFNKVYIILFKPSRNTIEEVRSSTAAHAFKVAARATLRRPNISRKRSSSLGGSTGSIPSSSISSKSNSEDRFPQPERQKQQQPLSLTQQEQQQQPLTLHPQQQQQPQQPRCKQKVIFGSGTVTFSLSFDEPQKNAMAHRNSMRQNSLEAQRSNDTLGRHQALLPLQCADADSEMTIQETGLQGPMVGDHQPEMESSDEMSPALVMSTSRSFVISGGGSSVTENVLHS

Bovine parathyroid cells [4] = test system: Bovine parathyroid cells
Procedure: This section describes measuring cyclic AMP levels. Cells were incubated as above for PTH secretion studies and at the end of the incubation, a 0.15-ml sample was taken and transferred to 0.85 ml of hot (70° C.) water and heated at this temperature for 5-10 minutes. The tubes were subsequently frozen and thawed several times and the cellular debris sedimented by centrifugation. Portions of the supernatant were acetylated and cyclic AMP concentrations determined by radioimmunoassay.
Bovine parathyroid cells were cultured for 16 hours with or without 100 ng/ml pertussis toxin. […] Each value is the mean±SEM of three experiments.

Bovine parathyroid cells [5] = test: PTH secretion from bovine parathyroid cells; settings: concentrations that mobilize intracellular Ca2+
Procedure: PTH secretion was measured by first suspending cells in PCB containing 0.5 mM CaCl2 and 0.1% BSA.
Counting of samples and data reduction were performed on a Packard Cobra 5005 gamma counter.

Bovine parathyroid cells [6] = test: Inositol phosphate formation in bovine parathyroid cells
Procedure: After 30 seconds, the reaction was terminated by the addition of CHCl3:MeOH:HCl and IP1 (circles) and IP3 (triangles) separated by anion exchange chromatography. Each point is the mean of 2 experiments, each performed in triplicate.
This section describes procedures measuring inositol phosphate formation. Membrane phospholipids were labeled by incubating parathyroid cells with 4 μCi/ml ^3H-myo-inositol for 20-24 hours. Cells were then washed and resuspended in PCB containing 0.5 mM CaCl2 and 0.1% BSA. Incubations were performed in microfuge tubes in the absence or presence of various concentrations of organic polycation for different times. Reactions were terminated by the addition of 1 ml chloroform-methanol-12 N HCl (200:100:1; v/v/v). Aqueous phytic acid hydrolysate (200 μl; 25 μg phosphate/tube). The tubes were centrifuged and 600 μl of the aqueous phase was diluted into 10 ml water.
Inositol phosphates were separated by ion-exchange chromatography using AG1-X8 in either the chloride- or formate-form. When only IP3 levels were to be determined, the chloride-form was used, whereas the formate form was used to resolve the major inositol phosphates (IP3, IP2, and IP1). […] The last eluate was diluted and counted. […] The eluted samples from the formate columns were rotary evaporated, the residues brought up in cocktail, and counted.

Row | Compound | Cl- current [1] | Cl- current [2] | EC50 [3] | cyclic AMP (% of control), control (Bovine parathyroid cells [4]) | PTH secretion (Bovine parathyroid cells [5]) | formation of IP3 (Bovine parathyroid cells [6])
1 | NCCCNCCCCNCCCNCCCNCCCNC(=O)Cc1c[nH]c2ccccc12 [NPS 019] | evoked increases in the Cl^− current | oscillatory increases in the Cl^− current | > 300 µM | – | – | –
2 | protamine | – | – | – | 20 ± 4 % of control | inhibited PTH secretion to the same extent as extracellular Ca^2+ | rapid (within 30 seconds) increase in the formation of IP3

— patent US20130190407A1, “CALCIUM RECEPTOR-ACTIVE MOLECULES” (NPS Pharmaceuticals, Inc., priority 1991, published 2013)
